Data reported in patent publication US12048678B2, “Compounds for treating myelin related disorders” (Case Western Reserve University, priority 2018, dated 2024).

Tests used:
[1] = tested on: oligodendrocyte progenitor cells (OPCs), OPC-5; assay: Differentiation of OPCs to MBP+ oligodendrocytes (in vitro phenotypic screening, high-content imaging); type: cell-based, mouse; settings: for activation at 0.03 µM / activation at 0.1 µM / activation at 0.3 µM / activation at 1 µM: Mus musculus, Oligodendrocyte progenitor cell, 72 h treatment; for activation at 0.03 µM: read-out: % enhancement of MBP+ oligodendrocyte generation at 0.03 μM concentration; for activation at 0.1 µM: read-out: % enhancement of MBP+ oligodendrocyte generation at 0.1 μM concentration; for activation at 0.3 µM: read-out: % enhancement of MBP+ oligodendrocyte generation at 0.3 μM concentration; for activation at 1 µM: read-out: % enhancement of MBP+ oligodendrocyte generation at 1 μM concentration; for enhancement of oligodendrocyte formation (in words): OPC-5, FIGS. 2a-2c
Method: To rigorously assess effects of small molecule and genetic treatments on OPCs, all treatments were assayed in two batches of epiblast stem cell-derived OPCs, and key results were confirmed using mouse primary OPCs. OPCs were generated from two separate EpiSC lines, EpiSC5 (giving rise to OPC-5 OPCs) and 12901 (giving rise to OPC-1 OPCs). EpiSC-derived OPCs were obtained using in vitro differentiation protocols and culture conditions described previously. To ensure uniformity throughout all in vitro screening experiments, EpiSC-derived OPCs were sorted to purity by fluorescence activated cell sorting at passage five with conjugated CD 140a-APC (eBioscience, 17-1401; 1:80) and NG2-AF488 (Millipore, AB5320A4; 1:100) antibodies. Sorted batches of OPCs were expanded and frozen down in aliquots. OPCs were thawed into growth conditions for one passage before use in further assays. Cultures were regularly tested and shown to be mycoplasma free.
EpiSC-derived OPCs were grown and expanded in poly-ornithine (PO) and laminin-coated flasks with growth medium (DMEM/F12 supplemented with N2-MAX (R&D Systems), B-27 (ThermoFisher), GlutaMax (Gibco), FGF2 ([…], R&D systems, 233-FB-025) and PDGF-AA ([…], R&D systems, 233-AA-050) before harvesting for plating. The cells were seeded onto poly-D-lysine 96-well CellCarrier or CellCarrierUltra plates (PerkinElmer) coated with laminin (Sigma, L2020; 15 μg/ml) using multi-channel pipet. For the experiment, 800,000 cells/mL stock in differentiation medium (DMEM/F12 supplemented with N2-MAX and B-27) was prepared and stored on ice for 2 h. Then, 40,000 cells were seeded per well in differentiation medium and allowed to attach for 30 min before addition of drug. For dose-response testing of all molecules except sterols, a 1000× compound stock in dimethyl sulphoxide (DMSO) was added to assay plates with 0.1 μL solid pin multi-blot replicators (V & P Scientific; VP 409), resulting in a final primary screening concentration of 1×. Cells were incubated under standard conditions (37° C., 5% CO2) for 3 days and fixed with 4% paraformaldehyde (PFA) in phosphate buffered saline (PBS) for 20 min. Fixed plates were washed with PBS (200 μL per well) twice, permeabilized with 0.1% Triton X-100 and blocked with 10% donkey serum (v/v) in PBS for 40 min. Then, cells were labelled with MBP antibodies (Abcam, ab7349; 1:200) for 16 h at 4° C. followed by detection with Alexa Fluor conjugated secondary antibodies (1:500) for 45 min. Nuclei were visualized by DAPI staining (Sigma; 1 μg/ml). During washing steps, PBS was added using a multi-channel pipet and aspiration was performed using Biotek EL406 washer dispenser (Biotek) equipped with a 96-well aspiration manifold.
Plates were imaged on the Operetta High Content Imaging and Analysis system (PerkinElmer) and a set of 6 fields captured from each well resulting in an average of 1200 cells being scored per well. Analysis (PerkinElmer Harmony and Columbus software) began by identifying intact nuclei stained by DAPI; that is, those traced nuclei that were larger than 300 μm2 in surface area. Each traced nucleus region was then expanded by 50% and cross-referenced with the […] (MBP) stain to identify oligodendrocyte nuclei, and from this the percentage of oligodendrocytes was calculated.

[2] = tested on: cholesterol biosynthesis in OPCs (CYP51, TM7SF2, EBP); assay: GC/MS-based sterol profiling in OPCs; type: cell-based, mouse; settings: GC-MS
Method: EpiSC-derived OPCs were plated at 0.5 million cells per ml in PDL- and laminin-coated six or twelve well plate with differentiation media. After 24 hours, cells were dissociated with Accutase, rinsed with saline, and cell pellets were frozen. For sterol analyses, cells were lysed in methanol (Sigma-Aldrich) with agitation for 30 minutes and cell debris removed by centrifugation at 10,000 rpm for 15 min. Cholesterol-d7 standard (25,26,26,26,27,27,27-^2H7-cholesterol, Cambridge Isotope Laboratories) was added before drying under nitrogen stream and derivatization with 55 μl of bis(trimethylsilyl)trifluoroacetamide/trimethylchlorosilane to form trimethylsilyl derivatives. Following derivatization at 60° C. for 20 minutes, 1 μl was analyzed by gas chromatography/mass spectrometry using an Agilent 5973 Network Mass Selective Detector equipped with a 6890 gas chromatograph system and a HP-5MS capillary column ([…]). Samples were injected in splitless mode and analyzed using electron impact ionization. Ion fragment peaks were integrated to calculate sterol abundance, and quantitation was relative to cholesterol-d7. The following m/z ion fragments were used to quantitate each metabolite: cholesterol-d7 (465), FF-Mas (482), cholesterol (368), zymostenol (458), zymosterol (456), desmosterol (456, 343), 7-dehydrocholesterol (456, 325), lanosterol (393), lathosterol (458), 14-dehydrozymostenol (456). Calibration curves were generated by injecting varying concentrations of sterol standards and maintaining a fixed amount of cholesterol-D7. The human glioma cell line GBM528 was a gift of Jeremy Rich (Cleveland Clinic). Human cortical spheroids were generated as described previously.

[3] = target: T1, M1 muscarinic receptor (Homo sapiens, UniProt P11229); assay: Muscarinic receptor antagonism assay (GeneBLAzer M1-NFAT-bla CHO-K1 cells); type: cell-based; settings: Compound 1 at 1 μM, TASIN-1 100 nM; concentration maximally effective for oligodendrocyte formation
T1 sequence (P11229 1-460): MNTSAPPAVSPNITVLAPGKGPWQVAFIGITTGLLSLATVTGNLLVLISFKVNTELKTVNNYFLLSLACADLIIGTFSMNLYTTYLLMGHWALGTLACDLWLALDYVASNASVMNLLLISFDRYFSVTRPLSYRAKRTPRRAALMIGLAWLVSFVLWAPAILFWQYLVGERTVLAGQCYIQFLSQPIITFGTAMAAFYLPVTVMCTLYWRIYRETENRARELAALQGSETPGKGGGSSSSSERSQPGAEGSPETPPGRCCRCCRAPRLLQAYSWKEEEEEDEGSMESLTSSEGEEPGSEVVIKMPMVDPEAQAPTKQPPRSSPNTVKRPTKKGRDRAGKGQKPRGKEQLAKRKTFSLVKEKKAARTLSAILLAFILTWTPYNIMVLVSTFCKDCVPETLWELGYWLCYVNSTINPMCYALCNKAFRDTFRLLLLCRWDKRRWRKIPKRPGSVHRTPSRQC
Method: GeneBLAzer M1-NFAT-bla CHO-K1 cells (or M3- or M5-NFAT-bla CHO-K1 cells)(ThermoFisher) were thawed into Assay Media (DMEM, 10% dialyzed FBS, 25 mM HEPES pH 7.3, 0.1 mM NEAA). 10,000 cells/well were added to a 384-well TC treated assay plate and incubated 16-24 h at 37° C. 4 μl of a 10× stock of antimuscarinic molecules was added to the plate and incubated 30 min. 4 μl of 10× control agonist Carbachol at the pre-determined EC80 concentration was added to wells containing antimuscarinic molecules. The plate was incubated 5 h and 8 μl of 1 μM Substrate+Solution D Loading Solution was added to each well and the plate was incubated 2 h at room temperature before reading on a fluorescence plate reader.

[4] = target: T2, estrogen receptor (T47D cells) (Homo sapiens, UniProt P03372); assay: Estrogen-dependent cell proliferation assay; type: cell-based; settings: Compound 1 at 1 μM, TASIN-1 100 nM
T2 construct: estrogen dependent growth of T47D cells; endogenous in cells; host or cells: T47D
T2 sequence (P03372 1-595): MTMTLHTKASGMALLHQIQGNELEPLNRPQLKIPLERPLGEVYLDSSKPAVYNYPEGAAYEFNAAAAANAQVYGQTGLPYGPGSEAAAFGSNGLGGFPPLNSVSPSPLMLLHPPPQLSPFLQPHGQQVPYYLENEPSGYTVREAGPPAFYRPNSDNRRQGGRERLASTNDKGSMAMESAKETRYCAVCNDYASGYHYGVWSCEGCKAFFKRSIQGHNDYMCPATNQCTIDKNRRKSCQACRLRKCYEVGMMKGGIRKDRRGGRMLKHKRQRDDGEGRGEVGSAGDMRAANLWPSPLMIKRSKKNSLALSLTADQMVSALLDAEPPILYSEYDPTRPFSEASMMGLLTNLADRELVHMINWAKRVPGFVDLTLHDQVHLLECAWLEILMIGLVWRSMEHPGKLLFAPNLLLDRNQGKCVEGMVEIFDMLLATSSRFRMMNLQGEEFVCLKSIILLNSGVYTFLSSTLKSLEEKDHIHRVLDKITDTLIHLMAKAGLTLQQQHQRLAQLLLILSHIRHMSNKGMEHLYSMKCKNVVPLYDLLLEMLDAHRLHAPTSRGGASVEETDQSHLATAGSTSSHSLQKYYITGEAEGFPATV
Method: Estrogen-dependent cell proliferation was measured as previously described with minor modifications. After growth in estrogen-free media (Phenol red-free RPMI supplemented with 10% charcoal stripped fetal bovine serum) for 5 days, cells were seeded at 2,500 cells/well into 96 well plates. The following day 3× drug containing media was added to triplicate wells and cells were allowed to grow for an additional 5 days at 37° C. in standard a 5% CO2 humidified incubator. Total DNA per well was measured using an adaptation of the method of Labarca and Paigen. At this time media was removed, cells were washed one time with 0.25×PBS and 100 μl of distilled water was added. […] After incubation at room temperature for 2 hours, plates were read in a SpectraMax i3 fluorescent plate reader (Molecular Devices, Sunnyvale, CA) with excitation at 360 nm and emission at 460 nm. All values were converted to microgram DNA per well using a standard curve derived from purified salmon testes DNA.

[5] = target: kappa opioid receptor (Homo sapiens, UniProt P41145); assay: k-Opioid receptor agonism assay (Tango  U2OS cells); type: cell-based; settings: Compound 1 at 1 μM, TASIN-1 100 nM, U50488 2 μM
Chain of kappa opioid receptor (P41145 whole entry): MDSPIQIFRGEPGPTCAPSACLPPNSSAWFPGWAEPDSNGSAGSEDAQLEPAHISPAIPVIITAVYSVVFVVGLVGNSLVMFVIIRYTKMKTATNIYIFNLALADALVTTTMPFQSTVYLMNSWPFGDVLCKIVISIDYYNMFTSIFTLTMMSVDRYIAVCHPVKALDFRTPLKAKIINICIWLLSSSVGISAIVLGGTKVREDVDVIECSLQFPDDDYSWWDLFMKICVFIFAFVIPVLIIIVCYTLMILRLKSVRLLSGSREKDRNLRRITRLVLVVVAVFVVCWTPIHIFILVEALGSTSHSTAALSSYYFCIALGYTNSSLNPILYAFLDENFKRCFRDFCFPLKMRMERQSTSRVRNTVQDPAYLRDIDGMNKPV

SMILES	activation at 0.03 µM [1] [%]	activation at 0.1 µM [1] [%]	activation at 0.3 µM [1] [%]	activation at 1 µM [1] [%]	enhancement of oligodendrocyte formation (in words) [1]	14-dehydrozymostenol accumulation in OPCs (indicative of TM7SF2 inhibition) ([2]; 1 μM)	EC50 for enhancing oligodendrocyte formation ([1]; wide concentration range)	cholesterol biosynthesis in OPCs ([2]; 10 μM screening dose)	lanosterol accumulation in OPCs (indicative of CYP51 inhibition) ([2]; 10 μM)	effect in cell-based assay for the M1 muscarinic receptor [3]	effect in cell-based assay for the estrogen receptor (estrogen dependent growth of T47D cells) [4]	effect in cell-based assay for the kappa opioid receptor [5]
OCCN1CCN(Cc2ccc(-c3ccccc3)cc2)CC1 [Compound 12]	≤ 20	20 to 30	30 to 40	> 40	–	–	–	–	–	–	–	–
OC1CCN(Cc2ccc(-c3ccccc3)cc2)CC1 [Compound 16]	20 to 30	20 to 30	20 to 30	30 to 40	–	–	–	–	–	–	–	–
CCCCOc1ccc(CN2CCCCC2CC)cc1 (stereo not drawn) [Compound 4]	≤ 20	20 to 30	≤ 20	20 to 30	–	–	–	–	–	–	–	–
OCC1CCCN(Cc2ccc(-c3ccccc3)cc2)C1 (stereo not drawn) [Compound 9]	20 to 30	20 to 30	30 to 40	30 to 40	–	–	–	–	–	–	–	–
OC1CCCN(Cc2ccc(-c3ccccc3)cc2)C1 (stereo not drawn) [Compound 8]	20 to 30	20 to 30	30 to 40	30 to 40	–	–	–	–	–	–	–	–
NC(=O)C1CCN(Cc2ccc(-c3ccccc3)cc2)CC1 [Compound 13]	20 to 30	20 to 30	30 to 40	> 40	–	–	–	–	–	–	–	–
c1ccc(-c2ccc(CNCCc3ccc(CN4CCCCC4)cc3)cc2)cc1 [Compound 18]	20 to 30	20 to 30	20 to 30	30 to 40	–	–	–	–	–	–	–	–
CN(C(=O)c1ccc(-c2ccccc2)cc1)[C@@H]1Cc2ccc(CN3CCCCC3CO)cc2C1 (stereo partly drawn) [Compound 10]	20 to 30	30 to 40	> 40	> 40	strongly promoted oligodendrocyte formation	accumulated 14-dehydrozymostenol	–	–	–	–	–	–
CN1CCN(Cc2ccc(-c3ccccc3)cc2)CC1 [Compound 6]	≤ 20	20 to 30	30 to 40	30 to 40	–	–	–	–	–	–	–	–
Clc1ccc(CN2CCN(Cc3ccccc3)CC2)cc1Cl [Compound 5]	≤ 20	20 to 30	30 to 40	30 to 40	–	–	–	–	–	–	–	–
c1ccc(-c2ccc(CN3CCCCCC3)cc2)cc1 [Compound 3]	20 to 30	20 to 30	30 to 40	> 40	–	–	–	–	–	–	–	–
OCC1CCCCN1Cc1ccc(Cl)c(Cl)c1 (stereo not drawn) [Compound 11]	20 to 30	30 to 40	> 40	> 40	strongly promoted oligodendrocyte formation	–	–	–	–	–	–	–
c1ccc(-c2ccc(CN3CCSCC3)cc2)cc1 [Compound 7]	≤ 20	30 to 40	20 to 30	30 to 40	–	–	–	–	–	–	–	–
Clc1ccc(CN2CCCCCCC2)cc1Cl [Compound 17]	≤ 20	≤ 20	≤ 20	≤ 20	–	–	–	–	–	–	–	–
Clc1ccc(CN2CCCCCC2)cc1Cl [Compound 15]	≤ 20	20 to 30	30 to 40	30 to 40	–	–	–	–	–	–	–	–
CC(C)C(=O)NC(Cc1ccc(OCc2ccccc2)cc1)C(=O)NCCCN(C)c1ccccc1 (stereo not drawn) [Compound 19]	20 to 30	20 to 30	30 to 40	30 to 40	–	–	mid-nanomolar range	inhibition of cholesterol biosynthesis	accumulation of the 8,9-unsaturated sterol lanosterol	–	–	–
CCN1CCN(Cc2ccc(-c3ccccc3)cc2)CC1 [Compound 2]	20 to 30	30 to 40	> 40	> 40	–	–	–	–	–	–	–	–
CSc1ccc(CN2CCCCC2CO)cc1 (stereo not drawn) [Compound 14]	20 to 30	30 to 40	30 to 40	30 to 40	–	–	–	–	–	–	–	–
COc1ccc(S(=O)(=O)N2CCC(N3CCC(C)CC3)CC2)cc1 [TASINI, TASIN-1, reference compound]	–	–	–	–	–	–	–	–	–	little affinity	little affinity	little affinity
